Experimental data taken from article PMC10763615, “Identification and engineering of potent cyclic peptides with selective or promiscuous binding through biochemical profiling and bioinformatic data analysis” (RSC Chemical Biology, 2023).
Read-outs that look alike come from different tables or passages of the source.

Experiments:
[1] = target: T1, FGFR3c/BKL (Fc-fused human FGF-R3alpha(IIIc) with beta-klotho) (Homo sapiens, UniProt P22607); assay: AlphaScreen FGF21 competitive binding assay
T1 sequence (P22607 23-375 limits assumed): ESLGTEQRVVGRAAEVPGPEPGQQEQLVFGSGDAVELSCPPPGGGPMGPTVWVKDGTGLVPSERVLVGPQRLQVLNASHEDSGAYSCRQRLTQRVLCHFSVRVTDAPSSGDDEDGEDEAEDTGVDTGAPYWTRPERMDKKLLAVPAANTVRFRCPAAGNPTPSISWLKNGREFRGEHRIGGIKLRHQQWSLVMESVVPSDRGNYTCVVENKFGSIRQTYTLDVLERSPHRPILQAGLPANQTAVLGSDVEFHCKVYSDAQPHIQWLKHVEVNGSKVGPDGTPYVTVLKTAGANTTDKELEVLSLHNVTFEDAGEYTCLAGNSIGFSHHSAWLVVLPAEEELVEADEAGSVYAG

FGF-R3C ECD [2] = target: T2, FGF-R3C ECD (Homo sapiens, UniProt P22607); assay: biochemical; assay type: binding; parameters: DNA constructs for the extracellular domain (ECD) of human FGF-; HPC4 (C); made in house; host or cells: HEK 293-6E
T2 sequence (P22607 23-375 limits assumed): T1 sequence (P22607 23-375 limits assumed)
How it was run: (§1)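 Streptavidin biosensors carrying biotinylated FGF receptor ECD were immersed in peptide (~1 μM for crude single-point runs, a concentration series for purified peptides) and then in peptide-free buffer. KD was obtained by fitting the BLI association and dissociation curves.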

FGF-R1C ECD [3] = target: T3, FGF-R1C ECD (Homo sapiens, UniProt P11362); assay: biochemical; assay type: binding; parameters: DNA constructs for the extracellular domain (ECD) of human FGF-; HPC4 (C); made in house; host or cells: HEK 293-6E
T3 sequence (P11362 22-376 limits assumed): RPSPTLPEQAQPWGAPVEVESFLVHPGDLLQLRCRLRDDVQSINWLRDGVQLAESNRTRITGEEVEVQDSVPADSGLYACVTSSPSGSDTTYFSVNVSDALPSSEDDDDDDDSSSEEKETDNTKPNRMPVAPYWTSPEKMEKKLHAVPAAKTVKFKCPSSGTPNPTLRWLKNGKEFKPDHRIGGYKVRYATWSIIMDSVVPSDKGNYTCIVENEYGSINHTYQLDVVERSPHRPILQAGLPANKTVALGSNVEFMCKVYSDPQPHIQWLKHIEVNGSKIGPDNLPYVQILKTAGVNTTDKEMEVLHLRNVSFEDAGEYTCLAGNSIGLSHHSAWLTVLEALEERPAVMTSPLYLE
How it was run: as §1

FGF-R4 ECD [4] = target: T4, FGF-R4 ECD (Homo sapiens, UniProt P22455); assay: single concentration BLI of crude peptides; assay type: binding; settings: crude NNK peptides, single concentration BLI (Table S3); read-out: KD (4)
T4 construct: DNA constructs for the extracellular domain (ECD) of human FGF-; HPC4 (C); made in house; host or cells: HEK 293-6E
T4 sequence (P22455 22-369 limits assumed): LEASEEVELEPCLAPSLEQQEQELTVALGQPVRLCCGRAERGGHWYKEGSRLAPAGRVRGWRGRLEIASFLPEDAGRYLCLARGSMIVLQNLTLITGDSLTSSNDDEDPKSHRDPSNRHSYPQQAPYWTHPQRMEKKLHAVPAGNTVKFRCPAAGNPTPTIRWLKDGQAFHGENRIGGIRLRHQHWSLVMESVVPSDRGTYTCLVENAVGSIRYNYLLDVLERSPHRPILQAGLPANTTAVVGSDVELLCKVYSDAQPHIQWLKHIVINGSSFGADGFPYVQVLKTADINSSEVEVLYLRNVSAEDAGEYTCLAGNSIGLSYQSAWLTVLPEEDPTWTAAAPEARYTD
How it was run: as §1

FGF-R4 ECD [5] = target: T4, FGF-R4 ECD; assay: multi-concentration BLI of purified peptides; assay type: binding; settings: purified NNK library peptides
How it was run: as §1

FGF-R3C ECD [6] = target: T2, FGF-R3C ECD; assay: biochemical
How it was run: as §1

FGF-R1C ECD [7] = target: T3, FGF-R1C ECD; assay: biochemical
How it was run: as §1

[8] = target: T5, FGFR4/KLB (Fc-fused human FGF-R4 with beta-klotho) (Homo sapiens, UniProt P22455); assay: AlphaScreen FGF21 competitive binding assay
T5 sequence (P22455 22-369 limits assumed): T4 sequence (P22455 22-369 limits assumed)
Description: Alphascreen binding assay
(§2) The competitive binding assay was carried out according to the methods detailed in Hansen. et al using
(§3) AlphaScreen.3 All reagents and samples were prepared in assay buffer: 40mM Hepes, 140mM NaCl, 1mM
(§4) CaCl2, 0,05% Tween20, pH=7.5, 0.1% BSA. In brief, recombinant human beta-klotho (R&D Systems) was
(§5) preincubated for 60 min with the ectodomain, either Fc-fused human FGF-R1alpha(IIIc), FGF-R3alpha(IIIc)
(§6) or FGF-R4 (R&D Systems), and the mixture was added to the test peptides in OptiPlate™ (PerkinElmer).
(§7) Biotinylated FGF21 and heparin were further added to each well. AlphaScreen bead mix (1:1 mix of Protein
(§8) A acceptor beads/ streptavidin-coated donor beads, PerkinElmer) were added to each well incubated
(§9) overnight at RT in the dark, and measured on a plate reader (Envision). Assays were carried out in triplicates
(§10) with concentrations ranging from 3, 10, 30, 100, 300 ,1000 and 3000 nM of peptide. No peptide control
(§11) (media only) was used as a negative control, and unlabeled FGF21 and FGF1 as positive control.
(§12) competing with biotinylated natural FGF21 ligand.

[9] = target: T6, FGFR1c/KLB (Fc-fused human FGF-R1alpha(IIIc) with beta-klotho) (Homo sapiens, UniProt P11362); assay: AlphaScreen FGF21 competitive binding assay
T6 sequence (P11362 22-376 limits assumed): T3 sequence (P11362 22-376 limits assumed)
Description: Alphascreen binding assay
as §2, §3, §4, §5, §6, §7, §8, §9, §10, §11, §12

CSCC[C@H](NC(C)=O)C(=O)N[C@H]1CSSC[C@@H](C(=O)NCC(=O)N[C@@H](CO)C(=O)NCC(=O)N[C@@H](CO)C(=O)N[C@@H](CC(=O)O)C(=O)N[C@@H](Cc2ccc(O)cc2)C(=O)N[C@@H](CCCCN)C(=O)N[C@@H](CC(=O)O)C(=O)N[C@@H](CC(=O)O)C(=O)N[C@@H](CC(=O)O)C(=O)N[C@@H](CC(=O)O)C(=O)N[C@@H](CCCCN)C(N)=O)NC(=O)[C@H](CO)NC(=O)[C@H](Cc2c[nH]cn2)NC(=O)[C@H](Cc2c[nH]c3ccccc23)NC(=O)[C@H](Cc2c[nH]cn2)NC(=O)[C@H](CCCNC(=N)N)NC(=O)[C@H]([C@@H](C)O)NC(=O)[C@H](Cc2ccc(O)cc2)NC(=O)[C@H](CC(C)C)NC(=O)[C@H](CC(N)=O)NC(=O)[C@H](Cc2c[nH]c3ccccc23)NC(=O)[C@H](CCC(N)=O)NC(=O)[C@H](CCC(N)=O)NC1=O [3C.4]
IC50 [1]: 0.071 µM
R3C competitive IC50 (nM) ([1]; purified peptides, Alphascreen vs biotinylated FGF21): efficiently competes with FGF21
Kd (FGF-R3C ECD [2]): > 10 µM
Kd (FGF-R1C ECD [3]): > 10 µM
Kd (FGF-R4 ECD [4]): > 10 µM
Kd (FGF-R4 ECD [5]): > 1 µM
Kd (FGF-R3C ECD [6]): > 1 µM
R3C KD (nM) (FGF-R3C ECD [6]; purified NNK library peptides, multi-concentration BLI): could not detect any binding
Kd (FGF-R1C ECD [7]): > 1 µM
IC50 [8]: > 1 µM
IC50 [9]: > 1 µM
